# From patent US11839613B2, “Pyrimidine derivatives as PGE2 receptor modulators” (IDORSIA PHARMACEUTICALS LTD, priority 2017, dated 2023)
# Legend:
# [1] = target: EP2 (Homo sapiens (Human), UniProt P43116); experiment: hEP2 cAMP assay (SF295 glioblastoma cells, HTRF cAMP); type: cell-based; conditions: antagonistic activity
# Excerpt: (§1) Human tumor cell lines expressing endogenously either EP4 or EP2 are used and cAMP accumulation in cells upon PGE2 stimulation is monitored. SF295 glioblastoma cells express high endogenous EP2 and no EP4, whereas BT549 breast cancer cells, express high endogenous EP4 levels and very low EP2 levels.
# (§2) As a detection method for cAMP the HTRF (homogeneous time resolved fluorescence) Cisbio kit (HTRF cAMP dynamic 2 kit 20'000 tests Cisbio Cat. #62AM4PEC) was used, which is based on a competitive immunoassay using a Cryptate-labeled anti-cAMP antibody and d2-labeled cAMP. Native cAMP produced by cells or unlabeled cAMP (for the standard curve) compete with exogenously added d2-labeled cAMP (acceptor) for binding to monoclonal anti-cAMP-Eu3+Cryptate (donor). A FRET signal (Fluorescence Resonance Energy Transfer) is obtained only if the labeled anti-cAMP antibody binds the d2 labelled cAMP, thus the specific signal (i.e. energy transfer) is inversely proportional to the concentration of cAMP in the standard or sample.
# (§3) Cells are counted washed and resuspended in assay buffer (AB; HBSS, 20 mM HEPES, 0.2% BSA; 2 mM IBMX).
# Plate is pre-incubated 45 minutes at RT. […] Plate is incubated 30 minutes at RT.
# [2] = target: EP4 (Homo sapiens (Human), UniProt P35408); experiment: hEP4 cAMP assay (BT549 breast cancer cells, HTRF cAMP); type: cell-based; conditions: antagonistic activity, PGE2 6 nM
# Excerpt: as §1, §2, §3
# Plate is pre-incubated 45 minutes at RT. Subsequently, 2.5 microliters of PGE2 (final conc. 6 nM) are transferred into the assay plate. Plate is incubated 30 minutes at RT.
# [3] = target: PTGER4 (EP4) (Homo sapiens (Human), UniProt P35408); experiment: cell-based
# Excerpt: The system is based on the Enzyme Fragment Complementation Technology. Two complementing fragments of the b-galactosidase enzyme are expressed within stably transfected cells. The larger portion of b-gal, termed EA for Enzyme Acceptor, is fused to the C-terminus of b-arrestin 2. The smaller fragment, termed ProLink™ tag, is fused to PTGER2 (EP2) or PTRGER4 (EP4) at the C-terminus. Upon activation, b-arrestin is recruited which forces the interaction of ProLink and EA, allowing complementation of the two fragments of b-gal and the formation of a functional enzyme which is capable of hydrolysing the substrate and generating a chemiluminescent signal.
# Plate is incubated at 37° C., 5% CO2 for 24 hours.
# Stock solutions of test compounds are made at a concentration of 10 mM in DMSO, and serially diluted in DMSO to concentrations required for inhibition dose response curves (tested concentration range 10 μM-2 nM or 1 μM-0.2 nM).
# Five microliters of diluted compounds are transferred into the assay plate. Plate is pre-incubated 15 minutes at 37° C. Then five microliters of PGE2 (final conc. 20 nM) are transferred into the assay plate. Plate is incubated 120 minutes at 37° C.
# Twelve I of reagent are transferred to the assay plate and incubate for 1 hour at RT in the dark. Luminescence counts are read on a BMG Fluostar Optima reader according to manufacturer's instructions.
# For each compound concentration calculate of the percentage of activity compared to DMSO control value as average ±STDEV. (each concentration is measured in duplicate)
# [4] = target: PTGER2 (EP2) (Homo sapiens (Human), UniProt P43116); experiment: hEP2 b-arrestin assay (PathHunter HEK 293 PTGER2 b-arrestin cells); type: cell-based; conditions: antagonistic activity, beta-arrestin assay; read-out: hEP2 b-arr IC50
# Protocol: Plate is pre-incubated 15 minutes at 37° C. Then five microliters of PGE2 (final conc. 5 μM) are transferred into the assay plate. Plate is incubated 120 minutes at 37° C.
# (each concentration is measured in duplicate)
# Sequence of EP4 (P35408 whole entry): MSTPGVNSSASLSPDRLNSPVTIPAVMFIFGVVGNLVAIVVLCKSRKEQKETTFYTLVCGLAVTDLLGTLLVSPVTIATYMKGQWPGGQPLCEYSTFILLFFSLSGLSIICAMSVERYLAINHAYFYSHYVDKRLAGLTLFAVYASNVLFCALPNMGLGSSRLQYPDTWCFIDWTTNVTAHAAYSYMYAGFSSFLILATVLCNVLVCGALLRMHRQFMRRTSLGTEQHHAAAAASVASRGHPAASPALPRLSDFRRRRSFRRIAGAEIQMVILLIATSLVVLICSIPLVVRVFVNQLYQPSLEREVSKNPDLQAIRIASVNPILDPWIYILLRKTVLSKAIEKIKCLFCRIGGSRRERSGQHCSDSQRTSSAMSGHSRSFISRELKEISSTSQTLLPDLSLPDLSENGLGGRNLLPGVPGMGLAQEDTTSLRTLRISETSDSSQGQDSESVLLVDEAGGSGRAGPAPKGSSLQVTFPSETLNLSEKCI
# Sequence of PTGER4 (EP4) (P35408 whole entry): as above
# Sequence of PTGER2 (EP2) (P43116 whole entry): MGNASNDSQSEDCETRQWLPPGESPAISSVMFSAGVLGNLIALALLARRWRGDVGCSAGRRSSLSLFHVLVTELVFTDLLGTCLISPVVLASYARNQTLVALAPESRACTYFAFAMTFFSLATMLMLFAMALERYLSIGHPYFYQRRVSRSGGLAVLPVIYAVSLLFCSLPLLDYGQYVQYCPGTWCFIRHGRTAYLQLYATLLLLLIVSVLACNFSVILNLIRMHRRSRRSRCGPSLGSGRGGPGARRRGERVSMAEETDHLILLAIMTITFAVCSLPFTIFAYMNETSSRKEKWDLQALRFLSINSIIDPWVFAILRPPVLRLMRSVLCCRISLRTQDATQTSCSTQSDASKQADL
# Sequence of EP2 (P43116 whole entry): as above
Compound,IC50 [1],IC50 [2],IC50 [3],IC50 [4]
CCOc1cc(-c2cc(NCCc3ccc4ccccc4c3F)ncn2)ccc1OCC(=O)O [Ex 136],677 nM,120 nM,29 nM,–
"CSc1cc(-c2cc(NCCc3ccc4c(c3)CCCO4)ncn2)ccc1C(=O)O [Ex 257, 4-[6-(2-Chroman-6-yl-ethylamino)-pyrimidin-4-yl]-2-methylsulfanyl-benzoic acid]",282 nM,389 nM,417 nM,–
CCOc1cc(-c2cc(NCCc3ccc4c(c3)c(C)cn4C)ncn2)sc1C(=O)O [Ex 133],482 nM,109 nM,42 nM,–
"CCOc1cc(-c2cc(NCCc3ccc4ccccc4c3F)ncn2)sc1C(=O)O [Ex 11, 3-Ethoxy-5-{6-[2-(1-fluoro-naphthalen-2-yl)-ethylamino]-pyrimidin-4-yl}-thiophene-2-carboxylic acid]",277 nM,7 nM,13 nM,–
"CCOc1cc(-c2cc(NCCc3c(OC)cc4ccccc4c3F)ncn2)sc1C(=O)O [Ex 3, 3-Ethoxy-5-{6-[2-(1-fluoro-3-methoxy-naphthalen-2-yl)-ethylamino]-pyrimidin-4-yl}-thiophene-2-carboxylic acid]",26 nM,2 nM,1 nM,–
"CCOc1cc(-c2cc(NCCc3cc4cccnc4cc3F)ncn2)sc1C(=N)NO [Example 347, 3-Ethoxy-5-{6-[2-(7-fluoro-quinolin-6-yl)-ethylamino]-pyrimidin-4-yl}-N-hydroxy-thiophene-2-carboxamidine]",495 nM,172 nM,31 nM,–
CCOc1cc(-c2cc(NCCc3ccc4ccccc4c3C)ncn2)sc1/C=C/C(=O)O [Ex 130],423 nM,106 nM,23 nM,–
CCOc1cc(-c2cc(NCCc3cc4ccoc4cc3F)ncn2)ccc1CC(=O)O [Ex 195],373 nM,217 nM,245 nM,–
CCOc1cc(-c2cc(NCCc3cc4c(cc3OC)OCCO4)ncn2)ccc1C(=O)O [Ex 286],86 nM,515 nM,–,198 nM
"CSc1cc(-c2cc(NCCc3cc4ccoc4cc3F)ncn2)ccc1C(=O)O [Ex 238, 4-{6-[2-(6-Fluoro-benzofuran-5-yl)-ethylamino]-pyrimidin-4-yl}-2-methylsulfanyl-benzoic acid]",75 nM,343 nM,–,55 nM
"CCOc1cc(-c2cc(NCCc3ccc4c(c3)OCCC4)ncn2)ccc1CC(=O)O [Ex 332, {4-[6-(2-Chroman-7-yl-ethylamino)-pyrimidin-4-yl]-2-ethoxy-phenyl}-acetic acid]",12200 nM,1510 nM,415 nM,–
"CCOc1cc(-c2cc(NCCc3cc4ccoc4cc3F)ncn2)ccc1C(=O)O [Ex 227, 2-Ethoxy-4-{6-[2-(6-fluoro-benzofuran-5-yl)-ethylamino]-pyrimidin-4-yl}-benzoic acid]",88 nM,293 nM,–,142 nM
"O=C(O)c1ccc(-c2cc(NCCc3ccc4cc[nH]c4c3)ncn2)cc1OC1CCC1 [Ex 278, 2-Cyclobutoxy-4-{6-[2-(1H-indol-6-yl)-ethylamino]-pyrimidin-4-yl}-benzoic acid]",187 nM,477 nM,–,281 nM
CCOc1cc(-c2cc(NCCc3cc4c(cc3OC)OCO4)ncn2)ccc1OCC(=O)O [Ex 239],222 nM,346 nM,–,134 nM
CSc1cc(-c2cc(NCCc3ccc4c(c3)OCCO4)ncn2)ccc1C(=O)O [Ex 310],564 nM,683 nM,937 nM,–
"CCOc1cc(-c2cc(NCCc3ccc4ccsc4c3)ncn2)ccc1C(=O)O [Ex 167, 4-[6-(2-Benzo[b]thiophen-6-yl-ethylamino)-pyrimidin-4-yl]-2-ethoxy-benzoic acid]",714 nM,166 nM,361 nM,–
Cc1csc2ccc(CCNc3cc(-c4ccc(C(=O)O)c(OC5CCC5)c4)ncn3)cc12 [Ex 306],274 nM,654 nM,610 nM,–
CCOc1cc(-c2cc(NCCc3cc4c(cc3OC)OCCO4)ncn2)ccc1CC(=O)O [Ex 175],301 nM,185 nM,179 nM,–

Compound,IC50 [1],IC50 [2],IC50 [3],IC50 [4]
"CCOc1cc(-c2cc(NCCc3c(F)cc4ncccc4c3F)ncn2)sc1-c1noc(=O)[nH]1 [Example 346, 3-(5-{6-[2-(5,7-Difluoro-quinolin-6-yl)-ethylamino]-pyrimidin-4-yl}-3-ethoxy-thiophen-2-yl)-[1,2,4]oxadiazol-5(4H)-one]",282 nM,110 nM,57 nM,–
"CCOc1cc(-c2cc(NCCc3c(OC)cc4occc4c3C)ncn2)ccc1C(=O)O [Ex 221, 2-Ethoxy-4-{6-[2-(6-methoxy-4-methyl-benzofuran-5-yl)-ethylamino]-pyrimidin-4-yl}-benzoic acid]",2 nM,285 nM,–,8 nM
CCOc1cc(-c2cc(NCCc3ccc4ccccc4c3C)ncn2)ccc1-c1noc(O)n1 [Ex 220],141 nM,283 nM,–,113 nM
"CSc1cc2c(cc1CCNc1cc(-c3ccc(C(=O)O)c(OC4CCC4)c3)ncn1)OCCO2 [Ex 70, 2-Cyclobutoxy-4-{6-[2-(7-methylsulfanyl-2,3-dihydro-benzo[1,4]dioxin-6-yl)-ethylamino]-pyrimidin-4-yl}-benzoic acid]",441 nM,38 nM,209 nM,–
CCOc1cc(-c2cc(NCCc3cc4c(cnn4C)cc3OC)ncn2)sc1C(=O)O [Ex 251],132 nM,369 nM,–,105 nM
"Fc1cc2ncccc2c(F)c1CCNc1cc(-c2ccc3cnccc3c2)ncn1 [Ex 318, [2-(5,7-Difluoro-quinolin-6-yl)-ethyl]-(6-isoquinolin-6-yl-pyrimidin-4-yl)-amine]",247 nM,753 nM,–,408 nM
"CSc1cc(-c2cc(NCCc3ccc4ccccc4c3)ncn2)ccc1C(=O)O [Ex 219, 2-Methylsulfanyl-4-[6-(2-naphthalen-2-yl-ethylamino)-pyrimidin-4-yl]-benzoic acid]",486 nM,129 nM,202 nM,–
"CCOc1cc(-c2cc(NCCc3cc4ccccc4cc3C)ncn2)ccc1C(=O)O [Ex 240, 2-Ethoxy-4-{6-[2-(3-methyl-naphthalen-2-yl)-ethylamino]-pyrimidin-4-yl}-benzoic acid]",816 nM,346 nM,598 nM,–
"CCOc1cc(-c2cc(NCCc3cc4c(cc3OC)OCO4)ncn2)ccc1C(=O)O [Ex 315, 2-Ethoxy-4-{6-[2-(6-methoxy-benzo[1,3]dioxol-5-yl)-ethylamino]-pyrimidin-4-yl}-benzoic acid]",73 nM,703 nM,–,134 nM
"CCOc1cc(-c2cc(NCCc3ccc4ccccc4c3)ncn2)sc1C(=O)O [Ex 36, 3-Ethoxy-5-[6-(2-naphthalen-2-yl-ethylamino)-pyrimidin-4-yl]-thiophene-2-carboxylic acid]",557 nM,18 nM,20 nM,–
Cn1[nH]c(=O)c2ccc(-c3cc(NCCc4ccc5cc[nH]c5c4)ncn3)cc21 [Ex 249],171 nM,368 nM,–,196 nM
"COc1cc2c(cc1CCNc1cc(-c3ccc(C(=O)O)c(OC4CCC4)c3)ncn1)OCO2 [Ex 213, 2-Cyclobutoxy-4-{6-[2-(6-methoxy-benzo[1,3]dioxol-5-yl)-ethylamino]-pyrimidin-4-yl}-benzoic acid]",46 nM,256 nM,–,59 nM
CCOc1cc(-c2cc(NCCc3cc4ccoc4cc3F)ncn2)ccc1OC(C)C(=O)O (stereo not drawn) [Ex 236],147 nM,327 nM,–,121 nM
"Fc1cc2ncccc2c(F)c1CCNc1cc(-c2ccc3[nH]ccc3c2)ncn1 [Ex 330, [2-(5,7-Difluoro-quinolin-6-yl)-ethyl]-[6-(1H-indol-5-yl)-pyrimidin-4-yl]-amine]",249 nM,1040 nM,–,158 nM
"CCOc1cc(-c2cc(NCCc3cc4ccoc4cc3OC)ncn2)ccc1OC(C)C(=O)O (stereo not drawn) [Ex 233, 2-(2-Ethoxy-4-{6-[2-(6-methoxy-benzofuran-5-yl)-ethylamino]-pyrimidin-4-yl}-phenoxy)-propionic acid]",76 nM,322 nM,–,29 nM
"c1nc(NCCc2ccc3cc[nH]c3c2)cc(-c2ccc3[nH]ccc3c2)n1 [Ex 226, [2-(1H-Indol-6-yl)-ethyl]-[6-(1H-indol-5-yl)-pyrimidin-4-yl]-amine]",250 nM,291 nM,–,151 nM
CCOc1cc(-c2cc(NCCc3cc4c(cc3OC(F)F)OCO4)ncn2)ccc1C(=O)O [Ex 325],332 nM,887 nM,–,441 nM
Cc1cc2c(cc1CCNc1cc(-c3ccc(C(=O)O)c(OC4CCC4)c3)ncn1)OC=CO2 [Ex 288],85 nM,523 nM,–,156 nM
